In PubChem BioAssay AID504560 (Southern Research Specialized Biocontainment Screening …, 2011):

System: human PBMC HIV-1 CCR5-tropic replication, RT activity
Assay: antiviral activity, R5 HIV-1 in human PBMC – cell-based, set 2, dose response (AID 504560)

Row | Compound | IC50 [nM]
1 | Cc1c2c(=O)n(-c3nc4ccccc4s3)nc-2cc(O)n1Cc1cccs1 | 1970
2 | Cc1c2c(=O)n(-c3nc4ccccc4s3)nc-2cc(O)n1Cc1ccncc1 | 1890
3 | Cc1c2c(=O)n(-c3nc4ccccc4s3)nc-2cc(O)n1Cc1ccc(F)cc1 | 3140
4 | COc1ccc(CCn2c(O)cc3nn(-c4nc5ccccc5s4)c(=O)c-3c2C)cc1 | 6110
5 | COc1ccccc1Cn1c(O)cc2nn(-c3nc4ccccc4s3)c(=O)c-2c1C | 5400
6 | Cc1c2c(=O)n(-c3nc4ccccc4s3)nc-2cc(O)n1Cc1cccnc1 | 920
7 | Cc1c2c(=O)n(-c3nc4ccccc4s3)nc-2cc(O)n1CCC(C)C | 5400
8 | Cc1c2c(=O)n(-c3nc4ccccc4s3)nc-2cc(O)n1Cc1ccccc1 | 2420
9 | Cc1c2c(=O)n(-c3nc4ccccc4s3)nc-2cc(O)n1C1CC1 | 720
10 | Cc1c2c(=O)n(-c3nc4ccccc4s3)nc-2cc(O)n1Cc1ccccc1Cl | 6310
11 | COc1ccc(Cn2c(O)cc3nn(-c4nc5ccccc5s4)c(=O)c-3c2C)cc1 | 2290
12 | Cc1c2c(=O)n(-c3nc4ccccc4s3)nc-2cc(O)n1CCc1cccs1 | 3470
13 | Cc1c2c(=O)n(-c3nc4ccccc4s3)nc-2cc(O)n1CCc1ccc(O)cc1 | 1510
